Tests used:
smooth muscle = conditions: from prior patents; cited from earlier work
muscarinic receptors = conditions: from prior publications and patents; cited from earlier work
QTc interval = assay: Effects on the QT-interval of the ECG; design: species or system guinea pigs; conditions: guinea pig, in vivo
Protocol: Anesthetized male guinea pigs (450–600 g) are used. The trachea is cannulated. Lead II electrocardiogram are recorded at 50 mm/sec. The is a 30 minute stabilization time after surgery, during which three baseline EKG recordings are made at 10-min intervals. Test article or vehicle are administered as an iv infusion over 30 min. ECG recordings are used to determine QT intervals and heart rates. To compensate for variations in heart rates, QTc intervals are calculated from QT- and RR-intervals as known to those skilled in the art. Prolongation of QTc is indicative of a prolonged action potential. Prolongation of QTc is a known cause of Torsades de Pointes ventricular fibrillation by drugs such as terodiline, terfenadine and astemizole (all of which have been withdrawn because of arrhythmogenic side effect).

bladder hyperactivity = conditions: cited from earlier work

Structure (SMILES): Cc1ccc(O)c(C(CCNC(C)C)c2ccccc2)c1 (centres unmarked) [DES-TOL]
- non-cholinergic spasmolytic activities (smooth muscle): express non-cholinergic spasmolytic activities
- anticholinergic activity / inhibition of muscarinic receptors (muscarinic receptors): anticholinergic activity was further decreased

Structure (SMILES): Cc1ccc(O)c([C@H](CCN(C(C)C)C(C)C)c2ccccc2)c1 [Tolterodine, R—N,N-diisopropyl-3-(2-hydroxy-5-methylphenyl)-3-phenylpropylamine]
- delay of cardiac repolarization (prolongation of the QTc interval of the ECG) (QTc interval): potently prolongs the QTc interval
- bladder hyperactivity in patients suffering from urinary incontinence (bladder hyperactivity): reduce bladder hyperactivity
- anticholinergic activity / inhibition of muscarinic receptors (muscarinic receptors): potent and non-selective inhibition of muscarinic receptors

Structure (SMILES): Cc1ccc(O)c([C@@H](CCN(C(C)C)C(C)C)c2ccccc2)c1 [S-TOL]
- non-cholinergic spasmolytic activities (smooth muscle): express non-cholinergic spasmolytic activities
- anticholinergic activity / inhibition of muscarinic receptors (muscarinic receptors): little anticholinergic activity

Structure (SMILES): CC(C)N(CC[C@H](c1ccccc1)c1cc(CO)ccc1O)C(C)C [Example 5HM]
- anticholinergic activity / inhibition of muscarinic receptors (muscarinic receptors): potent and non-selective inhibition of muscarinic receptors
